Assay [1] concerns the target T1, PDGFR-β (Homo sapiens, UniProt P09619).
T1 construct: host or cells: NIH 3T3
As to the kind of experiment: PDGFR bioassay (bio PDGF). Format: biochemical.
Procedure: Corning 96-well Elisa plates
28D4C10 monoclonal anti-PDGFR antibody (SUGEN, Inc.).
Blocking Buffer (same as for EGFR bioassay).
PDGFR-β expressing NIH 3T3 cell lysate (SUGEN, Inc.).
Kinase buffer phosphorylation mix: for 10 ml, mix 250 μl 1M TRIS, 200 μl 5M NaCl, 100 μl 1M MnCl2 and 50 μl 100 mM Triton X-100 in enough dH2O to make 10 ml.
(§1) NUNC 96-well V bottom polypropylene plates.
Rabbit polyclonal anti-phosphotyrosine serum (SUGEN, Inc.).
Goat anti-rabbit IgG peroxidase conjugate (Biosource Cat. No. ALI0404).
Hydrogen peroxide, 30% solution.
Coat Corning 96 well ELISA plates with 0.5 μg 28D4C10 in 100 μl PBS per well, store overnight at 4° C.
Remove unbound 28D4C10 from wells by inverting plate to remove liquid. Wash 1×with dH2O. Pat the plate on a paper towel to remove excess liquid.
Add 150 μl of Blocking Buffer to each well. Incubate for 30 min. at room temperature with shaking.
Wash plate 3×with deionized water, then once with TBST. Pat plate on a paper towel to remove excess liquid and bubbles.
Dilute lysate in HNTG (10 μg lysate/100 μl HNTG).
Add 100 μl of diluted lysate to each well. Shake at room temperature for 60 min.
Wash plates as described in Step 4.
Add 80 μl working kinase buffer mix to ELISA plate containing captured PDGFR.
Add 10 μl diluted test compound to ELISA plate. To control wells, add 10 μl TBS+10% DMSO. Incubate with shaking for 30 minutes at room temperature.
Add 10 μl ATP directly to all wells except negative control well (final well volume should be approximately 100 μl with 20 μM ATP in each well.) Incubate 30 minutes with shaking.
Stop reaction by adding 10 μl of EDTA solution to each well.
Wash 4×with deionized water, twice with TBST.
Add 100 μl anti-phosphotyrosine (1:3000 dilution in TBST) per well. Incubate with shaking for 30-45 min. at room temperature.
Incubate with shaking for 30 min. at room temperature.
Add 100 μl of ABTS/H2O2 solution to each well.
Incubate 10 to 30 minutes with shaking. Remove any bubbles.
If necessary stop reaction with the addition of 100 μl 0.2 M HCl per well.

Assay [2] concerns the target T2, HER-2 kinase (Homo sapiens, UniProt P04626).
T2 construct: Use EGFr/HER-2 chimera/3T3-C7 cell line for this assay; It is expressed in mouse NIH 3T3 clone C7 cells; P00533 (Epidermal growth factor receptor)
As to the kind of experiment: Cellular HER-2 kinase assay. As to conditions: read-out: Her2 Kinase IC50. Format: cell-based.
Procedure: Cellular HER-2 Kinase Assay
This assay is used to measure HER-2 kinase activity in whole cells in an ELISA format.
Fetal Bovine Serum (FBS, GIBCO Catalog #16000-044), heat inactivated in a water bath for 30 min. at 56° C.
Corning 96-well ELISA Plates.
as §1
SUMO 1: monoclonal anti-EGFR antibody (SUGEN, Inc.).
Blocking Buffer: 5% Carnation Instant Milk® in PBS.
Suspend powder in 100 uL of 10 mM HCl. Add 100 uL 10 mM NaOH. Add 800 uL PBS and transfer to an Eppendorf tube, store at −20° C. until ready to use.
Na3VO4. […] Adjust pH to 10. Boil in microwave for one minute (solution becomes clear). Cool to room temperature. Adjust pH to 10. Repeat heating/cooling cycle until pH remains at 10.
Rabbit polyclonal antiserum specific for phosphotyrosine (anti-Ptyr antibody, SUGEN, Inc.).
Affinity purified antiserum, goat anti-rabbit IgG antibody, peroxidase conjugate (Biosource Cat #ALI0404).
30% Hydrogen peroxide solution.
Coat Corning 96 well ELISA plates with SUMO1 at 1.0 ug per well in PBS, 100 ul final volume/well. Store overnight at 4° C.
On day of use, remove coating buffer and wash plate 3 times with dH2O and once with TBST buffer. All washes in this assay should be done in this manner, unless otherwise specified.
Add 100 ul of Blocking Buffer to each well. Incubate plate, with shaking, for 30 min. at room temperature. Just prior to use, wash plate.
Use EGFr/HER-2 chimera/3T3-C7 cell line for this assay.
Choose dishes having 80-90% confluence. Collect cells by trypsinization and centrifuge at 1000 rpm at room temperature for 5 min.
Resuspend cells in starve medium and count with trypan blue. Viability above 90% is required. Seed cells in starve medium at a density of 2,500 cells per well, 90 ul per well, in a 96 well microtiter plate. Incubate seeded cells overnight at 37° under 5% CO2.
Start the assay two days after seeding.
Test compounds are dissolved in 4% DMSO. Samples are then further diluted directly on plates with starve-DMEM. Typically, this dilution will be 1:10 or greater.
Incubate under 5% CO2 at 37° C. for 2 hours.
Prepare fresh HNTG* sufficient for 100 ul per well; place on ice.
After 2 hour incubation with test compound, add prepared EGF ligand to cells, 50 ul per well, for a final concentration of 50 nM. Positive control wells receive the same amount of EGF. […] Incubate at 37° C. for 10 min.
Remove test compound, EGF, and DMEM. Wash cells once with PBS.
Transfer HNTG* to cells, 100 ul per well. Place on ice for 5 minutes. Meanwhile, remove blocking buffer from ELISA plate and wash.
Scrape cells from plate with a micropipettor and homogenize cell material by repeatedly aspirating and dispensing the HNTG* lysis buffer. Transfer lysate to a coated, blocked, washed ELISA plate. Or, use a Costar transfer cartridge to transfer lysate to the plate.
Incubate, with shaking, at room temperature for 1 hr.
Remove lysate, wash. Transfer freshly diluted anti-Ptyr antibody (1:3000 in TBST) to ELISA plate, 100 ul per well.
Incubate, with shaking, at room temperature, for 30 min.
Remove anti-Ptyr antibody, wash. Transfer freshly diluted BIOSOURCE antibody to ELISA plate (1:8000 in TBST, 100 ul per well).
Incubate, with shaking, at room temperature for 30 min.
Remove BIOSOURCE antibody, wash. Transfer freshly prepared ABTS/H2O2 solution to ELISA plate, 100 ul per well.
Stop reaction with the addition of 100 ul of 0.2M HCl per well.

Assay [3] concerns the target T3, GST-Flk1 (Mus musculus, UniProt P35918).
T3 construct: GST-Flk1cd purified from sf9 recombinant baculovirus transformation; host or cells: Sf9 (baculovirus)
As to the kind of experiment: GST-FLK-1 bioassay (bio flkGST). Format: biochemical.
Procedure: This assay analyzes the tyrosine kinase activity of GST-Flk1 on poly(glu,tyr) peptides.
Preparation of poly(glu,tyr)(pEY) coated assay plates: Coat 2 ug/well of poly(glu,tyr)(pEY) in 100 ul PBS, hold at room temperature for 2 hours or at 4° C. overnight. Cover plates well to prevent evaporation.
When all reagents have dissolved, adjust the pH to 7.2 with HCl. Bring total volume to 1 L with dH2O.
PBST Buffer: to 1 L of PBS Buffer, add 1.0 ml Tween-20.
Adjust pH to 7.2 with HCl. Add 10 g BSA, stir to dissolve. Bring total volume to 1 L with dH2O. Filter to remove particulate matter.
Adjust total volume to 1 L with PBS buffer, filter to remove particulate matter.
GST-Flk1cd purified from sf9 recombinant baculovirus transformation (SUGEN, Inc.).
Add 10 N NaOH until EDTA dissolves. Adjust pH to 8.0. Adjust total volume to 100 ml with dH2O.
Anti-phosphotyrosine monoclonal antibody conjugated to horseradish peroxidase (PY99 HRP, Santa Cruz Biotech).
2,2′-Azinobis(3-ethylbenzthiazoline-6-sulfonic acid (ABTS, Moss, Cat. No. ABST).
Coat Corning 96-well ELISA plates with 2 μg of polyEY peptide in sterile PBS as described in step 3 of Materials and Reagents.
Remove unbound liquid from wells by inverting plate. Wash once with TBST. Pat the plate on a paper towel to remove excess liquid.
Add 100 μl of 1% BSA in PBS to each well. Incubate, with shaking, for 1 hr. at room temperature.
Soak wells with 50 mM HEPES (pH7.5) (150 μl/well).
Dilute test compound with dH2O/4% DMSO to 4 times the desired final assay concentration in 96-well polypropylene plates.
Add 25 μl diluted test compound to ELISA plate. In control wells, place 25 μl of dH2O/4% DMSO.
Add 25 μl 0.5M EDTA to negative control wells.
Dilute GST-Flk1 to 0.005 μg (5 ng)/well with KDB.
Add 50 μl of diluted enzyme to each well.
Incubate, with shaking, for 15 minutes at room temperature.
Wash 3×with TBST and pat plate on paper towel to remove excess liquid.
Incubate, with shaking, for 90 min. at room temperature.
Add 100 μl of room temperature ABTS solution to each well.
Stop reaction by adding 20 μl of 10% SDS to each well.

Assay [4] deals with T4, EGFR (Homo sapiens, UniProt P00533).
T4 construct: A431 cell lysate (SUGEN, Inc.); host or cells: A431
Briefly: EGFR bioassay (bio EGF). Format: biochemical.
Procedure: This assay is used to the in vitro kinase activity of FGF1-R in an ELISA assay.
1. Corning 96-well Elisa plates.
2. SUMO1 monoclonal anti-EGFR antibody (SUGEN, Inc.).
5. Blocking Buffer: for 100 ml, mix 5.0 g Carnation Instant Non-fat Milk® with 100 ml of PBS.
6. A431 cell lysate (SUGEN, Inc.).
9. […] This reagent should be made up immediately prior to use and kept on ice.
11. […] Prepare just prior to use, keep on ice.
12. NUNC 96-well V bottom polypropylene plates.
14. Rabbit polyclonal anti-phosphotyrosine serum (SUGEN, Inc.).
15. Goat anti-rabbit IgG peroxidase conjugate (Biosource Cat. No. ALI0404).
17. 30% Hydrogen peroxide.
1. Coat Corning 96 well ELISA plates with 0.5 μg SUMO1 in 100 μl PBS per well, store overnight at 4° C.
2. Remove unbound SUMO1 from wells by inverting plate to remove liquid. Wash 1×with dH2O. Pat the plate on a paper towel to remove excess liquid.
3. Add 150 μl of Blocking Buffer to each well. Incubate, with shaking, for 30 min. at room temperature.
4. Wash plate 3×with deionized water, then once with TBST. Pat plate on a paper towel to remove excess liquid and bubbles.
5. Dilute lysate in PBS (7 μg lysate/100 μl PBS).
6. Add 100 μl of diluted lysate to each well. Shake at room temperature for 1 hr.
7. Wash plates as in 4, above.
8. Add 120 μl TBS to ELISA plate containing captured EGFR.
10. Add 13.5 μl diluted test compound to ELISA plate. To control wells, add 13.5 μl TBS in 10% DMSO.
11. Incubate, with shaking, for 30 minutes at room temperature.
12. Add 15 μl phosphorylation mix to all wells except negative control well. Final well volume should be approximately 150 μl with 3 μM ATP/5 mM MnCl2 final concentration in each well. Incubate with shaking for 5 minutes.
13. Stop reaction by adding 16.5 μl of EDTA solution while shaking. Shake for additional 1 min.
14. Wash 4×with deionized water, 2×with TBST.
15. Add 100 μl anti-phosphotyrosine (1:3000 dilution in TBST) per well. Incubate, with shaking, for 30-45 min. at room temperature.
17. […] Incubate with shaking for 30 min. at room temperature.
19. Add 100 μl of ABTS/H2O2 solution to each well.
20. Incubate 5 to 10 minutes with shaking. Remove any bubbles.
21. If necessary, stop reaction by adding 100 μl 0.2 M HCl per well.

T4 sequence (P00533 25-1210): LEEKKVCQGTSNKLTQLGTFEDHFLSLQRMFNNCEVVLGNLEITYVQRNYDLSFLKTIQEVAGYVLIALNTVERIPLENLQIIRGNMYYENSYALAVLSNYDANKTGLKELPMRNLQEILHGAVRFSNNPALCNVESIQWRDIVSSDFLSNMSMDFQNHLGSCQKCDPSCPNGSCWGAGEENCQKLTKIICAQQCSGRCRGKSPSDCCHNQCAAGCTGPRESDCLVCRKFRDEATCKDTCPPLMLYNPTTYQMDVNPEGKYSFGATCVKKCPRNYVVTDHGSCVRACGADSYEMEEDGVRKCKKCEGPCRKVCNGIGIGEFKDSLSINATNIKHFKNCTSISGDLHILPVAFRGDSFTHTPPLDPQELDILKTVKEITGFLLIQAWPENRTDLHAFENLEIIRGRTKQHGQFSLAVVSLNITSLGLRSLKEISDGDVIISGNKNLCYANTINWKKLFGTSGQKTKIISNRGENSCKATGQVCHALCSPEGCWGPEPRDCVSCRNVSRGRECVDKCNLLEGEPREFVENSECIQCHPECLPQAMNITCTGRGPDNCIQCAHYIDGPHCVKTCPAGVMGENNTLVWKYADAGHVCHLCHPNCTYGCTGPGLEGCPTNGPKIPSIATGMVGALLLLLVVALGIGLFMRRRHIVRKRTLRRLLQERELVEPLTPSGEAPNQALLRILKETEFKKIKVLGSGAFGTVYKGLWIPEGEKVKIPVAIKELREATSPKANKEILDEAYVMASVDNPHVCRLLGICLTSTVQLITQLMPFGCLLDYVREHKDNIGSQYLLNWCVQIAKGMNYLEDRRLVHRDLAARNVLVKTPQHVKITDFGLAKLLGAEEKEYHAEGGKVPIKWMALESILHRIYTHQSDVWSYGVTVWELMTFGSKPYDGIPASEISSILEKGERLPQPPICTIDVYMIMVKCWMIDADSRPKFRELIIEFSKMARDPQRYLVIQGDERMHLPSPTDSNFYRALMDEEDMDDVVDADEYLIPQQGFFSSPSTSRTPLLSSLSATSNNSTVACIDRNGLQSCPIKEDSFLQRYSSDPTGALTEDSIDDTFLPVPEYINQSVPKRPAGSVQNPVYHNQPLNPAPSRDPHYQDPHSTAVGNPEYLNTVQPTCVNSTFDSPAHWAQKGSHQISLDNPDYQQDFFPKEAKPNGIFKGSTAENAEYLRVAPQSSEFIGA
T2 sequence (P04626 720-987 limits assumed): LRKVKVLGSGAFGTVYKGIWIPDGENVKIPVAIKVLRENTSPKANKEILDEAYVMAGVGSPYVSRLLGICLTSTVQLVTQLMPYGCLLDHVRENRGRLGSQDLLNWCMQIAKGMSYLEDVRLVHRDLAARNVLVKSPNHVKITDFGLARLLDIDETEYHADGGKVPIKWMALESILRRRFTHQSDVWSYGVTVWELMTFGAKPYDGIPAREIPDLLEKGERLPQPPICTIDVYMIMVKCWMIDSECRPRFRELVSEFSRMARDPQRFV
T3 sequence (P35918 784-1345 limits assumed): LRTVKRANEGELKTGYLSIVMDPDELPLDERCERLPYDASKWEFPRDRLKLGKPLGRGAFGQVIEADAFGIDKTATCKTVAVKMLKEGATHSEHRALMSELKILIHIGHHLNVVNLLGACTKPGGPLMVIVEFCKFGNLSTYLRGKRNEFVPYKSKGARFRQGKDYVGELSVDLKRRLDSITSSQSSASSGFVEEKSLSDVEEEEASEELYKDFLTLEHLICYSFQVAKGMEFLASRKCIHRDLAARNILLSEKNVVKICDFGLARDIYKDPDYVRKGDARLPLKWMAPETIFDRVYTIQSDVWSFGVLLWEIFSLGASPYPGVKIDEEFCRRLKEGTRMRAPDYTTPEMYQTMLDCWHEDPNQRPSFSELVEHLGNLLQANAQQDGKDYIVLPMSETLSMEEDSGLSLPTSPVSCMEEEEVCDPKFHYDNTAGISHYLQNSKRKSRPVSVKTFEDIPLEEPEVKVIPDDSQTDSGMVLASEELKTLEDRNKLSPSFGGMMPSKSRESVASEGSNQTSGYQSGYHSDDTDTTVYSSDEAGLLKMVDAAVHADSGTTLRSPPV
T1 sequence (P09619 33-1106): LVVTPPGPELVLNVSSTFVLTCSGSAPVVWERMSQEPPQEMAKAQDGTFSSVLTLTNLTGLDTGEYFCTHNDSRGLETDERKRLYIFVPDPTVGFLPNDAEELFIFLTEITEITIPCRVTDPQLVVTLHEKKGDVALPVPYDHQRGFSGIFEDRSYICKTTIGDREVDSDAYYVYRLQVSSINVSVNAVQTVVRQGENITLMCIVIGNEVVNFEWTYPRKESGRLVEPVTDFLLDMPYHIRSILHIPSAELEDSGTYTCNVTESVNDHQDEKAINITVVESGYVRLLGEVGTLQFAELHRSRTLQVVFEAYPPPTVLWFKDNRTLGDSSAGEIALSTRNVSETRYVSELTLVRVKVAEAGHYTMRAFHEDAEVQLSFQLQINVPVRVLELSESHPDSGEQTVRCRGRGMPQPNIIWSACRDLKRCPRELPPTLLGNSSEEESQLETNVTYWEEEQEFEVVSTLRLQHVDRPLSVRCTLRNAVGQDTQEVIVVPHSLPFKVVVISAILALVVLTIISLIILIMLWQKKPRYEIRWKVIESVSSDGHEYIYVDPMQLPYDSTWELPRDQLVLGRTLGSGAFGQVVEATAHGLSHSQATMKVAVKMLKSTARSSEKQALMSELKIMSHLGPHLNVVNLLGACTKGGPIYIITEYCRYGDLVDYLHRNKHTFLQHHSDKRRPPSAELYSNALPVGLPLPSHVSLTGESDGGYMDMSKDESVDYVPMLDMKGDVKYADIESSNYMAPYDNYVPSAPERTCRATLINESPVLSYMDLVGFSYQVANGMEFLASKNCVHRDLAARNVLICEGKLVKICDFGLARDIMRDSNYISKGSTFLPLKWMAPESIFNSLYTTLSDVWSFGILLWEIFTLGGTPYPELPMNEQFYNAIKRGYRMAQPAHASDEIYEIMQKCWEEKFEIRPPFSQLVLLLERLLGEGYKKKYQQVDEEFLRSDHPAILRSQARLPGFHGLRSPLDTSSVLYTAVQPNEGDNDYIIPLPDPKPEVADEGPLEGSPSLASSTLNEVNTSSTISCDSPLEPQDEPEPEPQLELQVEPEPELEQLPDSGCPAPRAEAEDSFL

Regarding `CCN(CC)CCCNC(=O)c1[nH]c(/C=C2\C(=O)Nc3cc(OC)ccc32)cc1C` [Example 16, 5-(6-Methoxy-2-oxo-1,2-dihydroindol-3-ylidenemethyl)-3-methyl-1H-pyrrole-2-carboxylic acid (3-diethylaminopropyl)amide], the IC50 (in general, the concentration needed to halve the response being measured) was 98.1 µM in assay [1] and 23.3 µM in assay [2].

With `Cc1c(C(=O)NCCCN2CCCC2)[nH]c(/C=C2\C(=O)Nc3cc(-c4ccccc4)ccc32)c1C(=O)c1ccccc1` [Example 25, 4-Benzoyl-3-methyl-5-(2-oxo-6-phenyl-1,2-dihydroindol-3-ylidenemethyl)-1H-pyrrole-2-carboxylic acid (3-pyrrolidin-1-ylpropyl)amide], the IC50 in assay [3] was 12.6 µM; in assay [4], 23.5 µM; in assay [2], 7.9 µM.

`CCN(CC)CCNC(=O)c1c(C(C)C)[nH]c(/C=C2\C(=O)Nc3ccc(Br)cc32)c1C(C)C` [Example 71, 5-(5-Bromo-2-oxo-1,2-dihydroindol-3-ylidenemethyl)-2,4-diisopropyl-1H-pyrrole-3-carboxylic acid (2-diethylaminoethyl)amide]: the IC50 in assay [3] was 15.2 µM; in assay [1], 22.5 µM; in assay [2], 9.91 µM.

As for `CCN(CC)CCCNC(=O)c1[nH]c(/C=C2\C(=O)Nc3ccccc32)cc1C` [Example 12, 3-Methyl-5-(2-oxo-1,2-dihydroindol-3-ylidenemethyl)-1H-pyrrole-2-carboxylic acid (3-diethylaminopropyl)amide], the half-inhibitory concentration (IC50) in assay [3] was above 20 µM; in assay [1], 21.5 µM; in assay [4], above 100 µM; in assay [2], 27.7 µM.

On to `Cc1[nH]c(/C=C2\C(=O)Nc3cc(-c4cccc(C(C)C)c4)ccc32)c(C)c1C(=O)NCCN1CCCC1` [Example 79, 5-[6-(3-Isopropyl-phenyl)-2-oxo-1,2-dihydroindol-3-ylidenemethyl]-2,4-dimethyl-1H-pyrrole-3-carboxylic acid (2-pyrrolidin-1-yl-ethyl)amide], for which the IC50 is 1.49 µM in assay [3], above 100 µM in assay [1], 27.4 µM in assay [4] and above 100 µM in assay [2].

Take `CC(=O)c1c(/C=C2\C(=O)Nc3ccc(Br)cc32)[nH]c(C(=O)NCCc2ccc(O)cc2)c1C` [Example 36, 4-Acetyl-5-(5-bromo-2-oxo-1,2-dihydroindol-3-ylidenemethyl)-3-methyl-1H-pyrrole-2-carboxylic acid [2-(4-hydroxy-phenyl)-ethyl]amide]: the IC50 in assay [3] was above 20 µM; in assay [1], above 100 µM; in assay [4] it was above 100 µM; in assay [2], above 100 µM.

As to `COc1ccc(C(C)C)cc1-c1ccc2c(c1)NC(=O)/C2=C\c1[nH]c(C)c(C(=O)NCCN2CCCC2)c1C` [Example 76, 5-[6-(5-Isopropyl-2-methoxy-phenyl)-2-oxo-1,2-dihydroindol-3-ylidenemethyl]-2,4-dimethyl-1H-pyrrole-3-carboxylic acid (2-pyrrolidin-1-yl-ethyl)amide], the IC50 in assay [3] worked out at 3.33 µM; in assay [1] it was 19.2 µM; in assay [4], 5.11 µM; in assay [2], 3.01 µM.

Regarding `COc1ccc2c(c1)/C(=C/c1[nH]c(C(=O)NCCCN3CCCC3)c(C)c1C(=O)c1ccccc1)C(=O)N2` [Example 27, 4-Benzoyl-5-(5-methoxy-2-oxo-1,2-dihydroindol-3-ylidenemethyl)-3-methyl-1H-pyrrole-2-carboxylic acid (3-pyrrolidin-1-ylpropyl)amide], the IC50 was above 100 µM in assay [1], 26.5 µM in assay [4] and 3.91 µM in assay [2].

Take `CCN(CC)CCCNC(=O)c1[nH]c(/C=C2\C(=O)Nc3ccc(OC)cc32)cc1C` [Example 15, 5-(5-Methoxy-2-oxo-1,2-dihydroindol-3-ylidenemethyl)-3-methyl-1H-pyrrole-2-carboxylic acid (3-diethylaminopropyl)amide]: the IC50 in assay [2] turned out to be 98.6 µM.

As to `CCN(CC)CCCNC(=O)c1[nH]c(/C=C2\C(=O)Nc3ccc(Br)cc32)c(C(C)=O)c1C` [Example 29, 4-Acetyl-5-(5-bromo-2-oxo-1,2-dihydroindol-3-ylidenemethyl)-3-methyl-1H-pyrrole-2-carboxylic acid (3-diethylaminopropyl)amide], the IC50 in assay [3] was 10.1 µM; in assay [1] it was above 100 µM; in assay [4] it was 26.7 µM; in assay [2], 3.98 µM.

As for `CC(=O)c1c(/C=C2\C(=O)Nc3ccc(Br)cc32)[nH]c(C(=O)NCCCN2CCCC2)c1C` [Example 30, 4-Acetyl-5-(5-bromo-2-oxo-1,2-dihydroindol-3-ylidenemethyl)-3-methyl-1H-pyrrole-2-carboxylic acid (3-pyrrolidin-1-ylpropyl)amide], the IC50 in assay [3] was 9.4 µM; in assay [1], above 100 µM; in assay [4], 18.7 µM; in assay [2], 4.1 µM.

As for `Cc1c(C(=O)NCCCN2CCOCC2)[nH]c(/C=C2\C(=O)Nc3ccc(Br)cc32)c1C(=O)c1ccccc1` [Example 22, 4-Benzoyl-5-(5-bromo-2-oxo-1,2-dihydroindol-3-ylidenemethyl)-3-methyl-1H-pyrrole-2-carboxylic acid (3-morpholin-4-ylpropyl)amide], the IC50 in assay [2] amounted to 87.7 µM.

On to `CC(=O)c1c(/C=C2\C(=O)Nc3ccc(Br)cc32)[nH]c(C(=O)NCCN2CCOCC2)c1C` [Example 34, 4-Acetyl-5-(5-bromo-2-oxo-1,2-dihydroindol-3-ylidenemethyl)-3-methyl-1H-pyrrole-2-carboxylic acid (2-morpholin-4-yl-ethyl)amide], for which the IC50 is above 50 µM in assay [3], above 100 µM in assay [1], above 100 µM in assay [4] and above 100 µM in assay [2].

`CCN(CC)CCNC(=O)c1c(C)[nH]c(/C=C2\C(=O)Nc3cc(C(=O)O)ccc32)c1C` [Example 81, 3-[4-(2-diethylaminoethylcarbamoyl)-3,5-dimethyl-1H-pyrrol-2-ylmethylene]-2-oxo-2,3-dihydro-1H-indole-6-carboxylic acid]: the IC50 in assay [3] was 0.21 µM; in assay [1], 0.18 µM; in assay [4], above 100 µM; in assay [2], above 100 µM.

`Cc1c(C(=O)NCCCN2CCCC2)[nH]c(/C=C2\C(=O)Nc3ccc(Br)cc32)c1C(=O)c1ccccc1` [Example 24, 4-Benzoyl-5-(5-bromo-2-oxo-1,2-dihydroindol-3-ylidenemethyl)-3-methyl-1H-pyrrole-2-carboxylic acid (3-pyrrolidin-1-ylpropyl)amide]: the IC50 turned out to be 16.8 µM in assay [4] and 5.31 µM in assay [2].

On to `CCCCc1ccc(-c2ccc3c(c2)NC(=O)/C3=C\c2[nH]c(C)c(C(=O)NCCN3CCCC3)c2C)cc1` [Example 75, 5-[6-(4-Butyl-phenyl)-2-oxo-1,2-dihydroindol-3-ylidenemethyl]-2,4-dimethyl-1H-pyrrole-3-carboxylic acid (2-pyrrolidin-1-yl-ethyl)amide], for which the IC50 in assay [3] was 2.7 µM; in assay [1], 61.6 µM; in assay [4] it was above 100 µM; in assay [2], above 100 µM.

In assay [1], `Cc1[nH]c(/C=C2\C(=O)Nc3ccc(-c4ccccc4)cc32)c(C)c1C(=O)NCCCn1ccnc1` [Example 58, 2,4-Dimethyl-5-(2-oxo-5-phenyl-1,2-dihydroindol-3-ylidenemethyl)-1H-pyrrole-3-carboxylic acid (3-imidazol-1-ylpropyl)amide] gave an IC50 of 21.1 µM.

Turning to `CCN(CC)CCCNC(=O)c1[nH]c(/C=C2\C(=O)Nc3cc(-c4ccccc4)ccc32)cc1C` [Example 14, 3-Methyl-5-(2-oxo-6-phenyl-1,2-dihydroindol-3-ylidenemethyl)-1H-pyrrole-2-carboxylic acid (3-diethylaminopropyl)amide], the IC50 was 13 µM in assay [3], 42.4 µM in assay [1], above 100 µM in assay [4] and 66 µM in assay [2].

Consider `Cc1c(C(=O)NCCCN2CCCC2)[nH]c(/C=C2\C(=O)Nc3ccc(F)cc32)c1C(=O)c1ccccc1` [Example 28, 4-Benzoyl-5-(5-fluoro-2-oxo-1,2-dihydroindol-3-ylidenemethyl)-3-methyl-1H-pyrrole-2-carboxylic acid (3-pyrrolidin-1-ylpropyl)amide], for which the IC50 in assay [3] came out at 4.5 µM; in assay [1], 71.3 µM; in assay [4], 53.7 µM; in assay [2], 2.67 µM.

As to `CC(=O)c1c(/C=C2\C(=O)Nc3ccc(Br)cc32)[nH]c(C(=O)NCCCN2CCOCC2)c1C` [Example 31, 4-Acetyl-5-(5-bromo-2-oxo-1,2-dihydroindol-3-ylidenemethyl)-3-methyl-1H-pyrrole-2-carboxylic acid (3-morpholin-4-ylpropyl)amide], the results for the IC50 in assay [4] and in assay [2] were 9.83 µM and 47.2 µM, respectively.

Take `CCN(CC)CCNC(=O)c1c(C)[nH]c(/C=C2\C(=O)Nc3cc(-c4cccnc4)ccc32)c1C` [Example 63, 2,4-Dimethyl-5-(2-oxo-6-pyridin-3-yl-1,2-dihydroindol-3-ylidenemethyl)-1H-pyrrole-3-carboxylic acid (2-diethylaminoethyl)amide]: the IC50 in assay [3] amounted to 0.21 µM; in assay [4], 8.59 µM.

Consider `CCN(CC)CCNC(=O)c1c(C)[nH]c(/C=C2\C(=O)Nc3cc(-c4cc(Cl)cc(Cl)c4)ccc32)c1C` [Example 62, 5-[6-(3,5-Dichloro-phenyl)-2-oxo-1,2-dihydroindol-3-ylidenemethyl]-2,4-dimethyl-1H-pyrrole-3-carboxylic acid (2-diethylaminoethyl)amide], for which the figures for the IC50 in assay [3] and in assay [1] were 8 µM and 8.32 µM, respectively.

The record behind these values is patent US6573293B2, “Pyrrole substituted 2-indolinone protein kinase inhibitors” (Sugen, Inc., priority 2000, dated 2003).
